Laboratory results from US20260001928A1 (CORTERIA PHARMACEUTICALS, priority 2022, published 2026).
*1 amine or outer side, *2 acyl side, *3 side chain or, on linkers, in order; H or OH if unused. Where a SMILES comes first, the peptide text is derived from it. Side-chain parts run from the residue outwards. [ ]: non-standard residue; d: D form. The star is where a group is joined. C20 diacid = O=C(O)CCCCCCCCCCCCCCCCCCC(=O)*; C16 diacid = O=C(O)CCCCCCCCCCCCCCC(=O)*; γGlu = O=C(O)[C@H](CCC(=O)[*:2])N[*:1]; C14 diacid = O=C(O)CCCCCCCCCCCCC(=O)*; C12 diacid = O=C(O)CCCCCCCCCCC(=O)*; NMeV = CN[C@H](C(=O)O)C(C)C; Api = NC1(C(=O)O)CCNCC1; Pentanoyl = CCCCC(=O)*; Aib = CC(C)(N)C(=O)O

Tests used:
[1] = target: T1, human CRF2a receptor (Homo sapiens, UniProt Q13324); assay: Activity at human CRF2a receptor, cAMP functional assay in TeloHEAC cells; format: cell-based; conditions: TeloHEAC cells stably expressing human CRF2a receptor, relative to urocortin 2 (100 nM = 100%)
T1 construct: expressed in transfected cells; host or cells: TeloHEAC cells
T1 sequence (Q13324 1-411): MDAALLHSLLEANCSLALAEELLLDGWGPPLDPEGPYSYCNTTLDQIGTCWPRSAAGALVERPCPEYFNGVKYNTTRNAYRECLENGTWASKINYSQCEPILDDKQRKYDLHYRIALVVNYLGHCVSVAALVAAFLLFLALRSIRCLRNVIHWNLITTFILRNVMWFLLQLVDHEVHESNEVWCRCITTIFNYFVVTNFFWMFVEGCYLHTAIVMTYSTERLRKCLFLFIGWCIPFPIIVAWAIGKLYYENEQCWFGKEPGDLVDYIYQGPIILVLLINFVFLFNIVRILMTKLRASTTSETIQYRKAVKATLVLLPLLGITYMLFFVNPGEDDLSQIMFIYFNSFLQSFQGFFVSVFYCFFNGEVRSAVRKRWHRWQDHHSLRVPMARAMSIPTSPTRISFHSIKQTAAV
Summary of the method: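 cAMP accumulation was measured by HTRF 665/620 nm ratio after 30 min at 37° C compound exposure (16 twofold dilutions) of CRF2a-expressing TeloHEAC cells, 10000/well, in HEPES-buffered HBSS plus IBMX. Activity was normalised to urocortin 2 at 100 nM (100%), and EC50 was the concentration giving half-maximal activation.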

[2] = target: T2, CFR1R receptor (Homo sapiens, UniProt P34998); assay: Activity at anti-target CFR1R receptor, cAMP assay in CRF1R-overexpression CHO-K1 cells; format: cell-based; conditions: 100% = Sauvagine at 100 nM; for EC50: cAMP
T2 construct: host or cells: CHO-K1 (clone 2)
T2 sequence (P34998 24-415): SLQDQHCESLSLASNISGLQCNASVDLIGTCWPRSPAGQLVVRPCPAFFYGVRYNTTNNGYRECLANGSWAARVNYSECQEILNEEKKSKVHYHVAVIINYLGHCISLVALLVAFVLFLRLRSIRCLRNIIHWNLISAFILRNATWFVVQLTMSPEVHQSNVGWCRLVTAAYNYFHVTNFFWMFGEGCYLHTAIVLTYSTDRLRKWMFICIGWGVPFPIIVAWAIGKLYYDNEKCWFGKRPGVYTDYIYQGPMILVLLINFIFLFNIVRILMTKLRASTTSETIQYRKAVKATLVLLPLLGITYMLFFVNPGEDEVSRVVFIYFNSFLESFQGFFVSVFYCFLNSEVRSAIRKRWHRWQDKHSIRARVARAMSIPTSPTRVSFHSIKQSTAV
Summary of the method: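 Clone 2; cryopreserved stocks (10% DMSO); 4000 cells/well final; 100% activation = Sauvagine 100 nM; otherwise as TeloHAEC protocol.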

With CC[C@H](C)[C@H](NC(C)=O)C(=O)N[C@H](C(=O)N[C@@H](CC(C)C)C(=O)N[C@@H](CO)C(=O)N[C@@H](CC(C)C)C(=O)N[C@@H](CC(=O)O)C(=O)N[C@@H](C(=O)N1CCC[C@H]1C(=O)N[C@H](C(=O)N[C@@H](CCCCN)C(=O)N[C@@H](CC(C)C)C(=O)N[C@@H](CCCCNC(=O)CC[C@H](NC(=O)CCCCCCCCCCCCC(=O)O)C(=O)O)C(=O)N[C@@H](CCCCN)C(=O)N[C@H](C(=O)N[C@@H](CC(C)C)C(=O)N[C@@H](CC(C)C)C(=O)N[C@@H](CCC(=O)O)C(=O)N[C@@H](CCC(N)=O)C(=O)N[C@@H](CCC(=O)O)C(=O)N[C@@H](CCCCN)C(=O)N[C@@H](CCC(N)=O)C(=O)N[C@@H](CCCCN)C(=O)NC(C)(C)C(=O)N[C@@H](CCC(N)=O)C(=O)N[C@@H](CCCNC(=N)N)C(=O)N[C@@H](CCC(=O)O)C(=O)N[C@@H](CCC(N)=O)C(=O)N[C@@H](C)C(=O)N[C@@H](CCC(=O)O)C(=O)N[C@H](C(=O)N[C@@H](CC(N)=O)C(=O)NC1(C(=O)N[C@@H](CCC(N)=O)C(=O)N[C@H](C(=O)N[C@@H](CC(C)C)C(=O)N[C@@H](C)C(=O)N[C@@H](CCC(N)=O)C(=O)N[C@H](C(N)=O)C(C)C)[C@@H](C)CC)CCNCC1)[C@@H](C)O)[C@@H](C)CC)[C@@H](C)CC)C(C)C)C(C)C [compound 170] (Ac-IVLSLD[dV]PIKLK([γGlu-C14 diacid])KILLEQEKQK[Aib]QREQAETN[Api]QILAQV-NH2) the EC50 [1] was 1.28 nM, the “Emax (% I)” value [2] was 5 % I and the EC50 [2] was greater than 250 nM.
In the case of CC[C@H](C)[C@H](NC(=O)[C@H](CCC(N)=O)NC(=O)C1(NC(=O)[C@H](CC(N)=O)NC(=O)[C@@H](NC(=O)[C@H](CCC(=O)O)NC(=O)[C@H](C)NC(=O)[C@H](CCC(N)=O)NC(=O)[C@H](CCC(=O)O)NC(=O)[C@H](CCCNC(=N)N)NC(=O)[C@H](CCC(N)=O)NC(=O)[C@H](CCCCN)NC(=O)[C@H](CCCCN)NC(=O)[C@H](CCC(N)=O)NC(=O)[C@H](CCCCN)NC(=O)[C@H](CCC(=O)O)NC(=O)[C@H](CCC(N)=O)NC(=O)[C@H](CCC(=O)O)NC(=O)[C@H](CC(C)C)NC(=O)[C@H](CC(C)C)NC(=O)[C@@H](NC(=O)[C@H](CCCCN)NC(=O)[C@H](CCCCNC(=O)CC[C@H](NC(=O)CCCCCCCCCCCCCCC(=O)O)C(=O)O)NC(=O)[C@H](CC(C)C)NC(=O)[C@H](CCCCN)NC(=O)[C@@H](NC(=O)[C@@H]2CCCN2C(=O)[C@H](NC(=O)[C@H](CC(=O)O)NC(=O)[C@H](CC(C)C)NC(=O)[C@H](CO)NC(=O)[C@H](CC(C)C)NC(=O)[C@@H](NC)C(C)C)C(C)C)[C@@H](C)CC)[C@@H](C)CC)[C@@H](C)O)CCNCC1)C(=O)N[C@@H](CC(C)C)C(=O)N[C@@H](C)C(=O)N[C@@H](CCC(N)=O)C(=O)N[C@H](C(N)=O)C(C)C [compound 160] (H-[NMeV]LSLD[dV]PIKLK([γGlu-C16 diacid])KILLEQEKQKKQREQAETN[Api]QILAQV-NH2), the EC50 [1] is reported as 2.08 nM, the “Emax (% I)” value [2] is reported as 2 % I and the EC50 [2] is reported as greater than 250 nM.
In the case of CC[C@H](C)[C@H](NC(C)=O)C(=O)N[C@H](C(=O)N[C@@H](CC(C)C)C(=O)N[C@@H](CO)C(=O)N[C@@H](CC(C)C)C(=O)N[C@@H](CC(=O)O)C(=O)N[C@@H](C(=O)N1CCC[C@H]1C(=O)N[C@H](C(=O)N[C@@H](CCCCN)C(=O)N[C@@H](CC(C)C)C(=O)N[C@@H](CCCCNC(=O)CC[C@H](NC(=O)CCCCCCCCCCC(=O)O)C(=O)O)C(=O)N[C@@H](CCCCN)C(=O)N[C@H](C(=O)N[C@@H](CC(C)C)C(=O)N[C@@H](CC(C)C)C(=O)N[C@@H](CCC(=O)O)C(=O)N[C@@H](CCC(N)=O)C(=O)N[C@@H](CCC(=O)O)C(=O)N[C@@H](CCCCN)C(=O)N[C@@H](CCC(N)=O)C(=O)N[C@@H](CCCCN)C(=O)NC(C)(C)C(=O)N[C@@H](CCC(N)=O)C(=O)N[C@@H](CCCNC(=N)N)C(=O)N[C@@H](CCC(=O)O)C(=O)N[C@@H](CCC(N)=O)C(=O)N[C@@H](C)C(=O)N[C@@H](CCC(=O)O)C(=O)N[C@H](C(=O)N[C@@H](CC(N)=O)C(=O)NC1(C(=O)N[C@@H](CCC(N)=O)C(=O)N[C@H](C(=O)N[C@@H](CC(C)C)C(=O)N[C@@H](C)C(=O)N[C@@H](CCC(N)=O)C(=O)N[C@H](C(N)=O)C(C)C)[C@@H](C)CC)CCNCC1)[C@@H](C)O)[C@@H](C)CC)[C@@H](C)CC)C(C)C)C(C)C [compound 184] (Ac-IVLSLD[dV]PIKLK([γGlu-C12 diacid])KILLEQEKQK[Aib]QREQAETN[Api]QILAQV-NH2), the EC50 [1] is reported as 4.25 nM, the “Emax (% I)” value [2] is reported as 3 % I and the EC50 [2] is reported as greater than 250 nM.
With CCCCC(=O)N[C@H](C(=O)N[C@@H](CC(C)C)C(=O)N[C@@H](CO)C(=O)N[C@@H](CC(C)C)C(=O)N[C@@H](CC(=O)O)C(=O)N[C@@H](C(=O)N1CCC[C@H]1C(=O)N[C@H](C(=O)N[C@@H](CCCCN)C(=O)N[C@@H](CC(C)C)C(=O)N[C@@H](CCCCNC(=O)CC[C@H](NC(=O)CCCCCCCCCCCCCCCCCCC(=O)O)C(=O)O)C(=O)N[C@@H](CCCCN)C(=O)N[C@H](C(=O)N[C@@H](CC(C)C)C(=O)N[C@@H](CC(C)C)C(=O)N[C@@H](CCC(=O)O)C(=O)N[C@@H](CCC(N)=O)C(=O)N[C@@H](CCC(=O)O)C(=O)N[C@@H](C)C(=O)N[C@@H](CCC(N)=O)C(=O)N[C@@H](CCCCN)C(=O)N[C@@H](CCCCN)C(=O)N[C@@H](CCC(N)=O)C(=O)N[C@@H](CCCNC(=N)N)C(=O)N[C@@H](CCC(=O)O)C(=O)N[C@@H](CCC(N)=O)C(=O)N[C@@H](C)C(=O)N[C@@H](CCC(=O)O)C(=O)N[C@H](C(=O)N[C@@H](CC(N)=O)C(=O)NC(C)(C)C(=O)N[C@@H](CCC(N)=O)C(=O)N[C@H](C(=O)N[C@@H](CC(C)C)C(=O)N[C@@H](C)C(=O)N[C@@H](CCC(N)=O)C(=O)N[C@H](C(N)=O)C(C)C)[C@@H](C)CC)[C@@H](C)O)[C@@H](C)CC)[C@@H](C)CC)C(C)C)C(C)C [compound 221] (Pentanoyl-VLSLD[dV]PIKLK([γGlu-C20 diacid])KILLEQEAQKKQREQAETN[Aib]QILAQV-NH2) the EC50 [1] was 0.18 nM and the “Emax (% I)” value [2] was 79 % I.
CC[C@H](C)[C@H](NC(C)=O)C(=O)N[C@H](C(=O)N[C@@H](CC(C)C)C(=O)N[C@@H](CO)C(=O)N[C@@H](CC(C)C)C(=O)N[C@@H](CC(=O)O)C(=O)N[C@@H](C(=O)N1CCC[C@H]1C(=O)N[C@H](C(=O)N[C@@H](CCCCN)C(=O)N[C@@H](CC(C)C)C(=O)N[C@@H](CCCCNC(=O)CC[C@H](NC(=O)CCCCCCCCCCCCCCC(=O)O)C(=O)O)C(=O)N[C@@H](CCC(N)=O)C(=O)N[C@H](C(=O)N[C@@H](CC(C)C)C(=O)N[C@@H](CC(C)C)C(=O)N[C@@H](CCCCN)C(=O)N[C@@H](CCC(N)=O)C(=O)N[C@@H](CCC(=O)O)C(=O)N[C@@H](CCCNC(=N)N)C(=O)N[C@@H](CCC(N)=O)C(=O)N[C@@H](CCCCN)C(=O)N[C@@H](CCCCN)C(=O)N[C@@H](CCC(N)=O)C(=O)N[C@@H](CCCNC(=N)N)C(=O)N[C@@H](CCC(=O)O)C(=O)N[C@@H](CCC(N)=O)C(=O)N[C@@H](C)C(=O)N[C@@H](CCC(=O)O)C(=O)N[C@@H](CCCCN)C(=O)N[C@@H](CC(N)=O)C(=O)N[C@@H](CCC(=O)O)C(=O)N[C@@H](CCC(N)=O)C(=O)N[C@H](C(=O)N[C@@H](CC(C)C)C(=O)N[C@@H](CCC(=O)O)C(=O)N[C@@H](CCC(N)=O)C(=O)N[C@H](C(N)=O)C(C)C)[C@@H](C)CC)[C@@H](C)CC)[C@@H](C)CC)C(C)C)C(C)C [compound 17] (Ac-IVLSLD[dV]PIKLK([γGlu-C16 diacid])QILLKQERQKKQREQAEKNEQILEQV-NH2) was tested, and the EC50 [1] was 0.21 nM, the “Emax (% I)” value [2] was 12 % I and the EC50 [2] was greater than 250 nM.
